Like-named read-outs stand apart in the source and are kept apart here.
Columns and labels:
[1] = Mouse hypercalcemia assay (six day, serum ionized calcium); format: in vivo
Experimental: 5. The Mouse Hypercalcemia test is described in the “Assay” section of the Description, infra.
4. The Mouse Hypercalcemia Assay
The Mouse Hypercalcemia Assay is a six day hypercalcemia test for toxicity and selectivity. Acceptable test results are levels greater than 300 μg/kg/day. Preferred assay results are levels greater than 1000 μg/kg/day.
(4) Materials and Method for The Mouse Hypercalcemia Assay:
Weanling, virus-antibody-free, five to six weeks old female DBF mice (Harlan, Indianapolis, Ind.) are used for all the studies. Animals are allowed to acclimate to local vivarium conditions for 2 days. […] The animals then are divided into groups with 4-5 mice per group. Different doses of test compounds prepared in 10% Ethanol and 90% sesame oil are administered to mice orally via gavage for 6 days. 1α-25(OH)2D3 0.5 μg/kg/d was also given to one group of mice as the positive control. Serum ionized calcium is evaluated at 6 hours after the last dosing under isoflurane anesthesia by Ciba-Corning Ca++/PH Analyzer, (Model 634, Chiron Diagnostics Corp., East Walpole, Mass.). Raw data of group differences is assessed by analysis of variance (ANOVA) using Fisher's protected least significant difference (PLSD) where the significance level was P<0.05.

rat osteocalcin promoter = assay: OCN (osteocalcin) promoter assay in RG-15 (ROS 17/2.8) cells; format: cell-based
Procedure, shortened: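 Rat osteoblast-like RG-15 (ROS 17/2.8) cells stably carry the rat osteocalcin promoter fused to luciferase. They were treated with compounds for 48 h in medium with 2% FBS and 0.01% DMSO. EC50 was derived from luciferase activity in cell lysates.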

KERtr cells = assay: Keratinocyte proliferation assay (BrdU incorporation); format: cell-based; details: KERtr human skin keratinocytes, 72 hr treatment, read-out: Kera. Prolif. IC50
Experimental: 6. The keratinocyte proliferation assay is described in the “Assay” section of the Description, infra.
5. The Keratinocyte Proliferation Assay
This Assay is indicative for the treatment of psoriasis.
(5) The Keratinocyte Proliferation Assay:
KERtr cells (Human skin keratinocyte transformed with a retrovirus vector, obtained from ATCC) were plated in 96-well flat-bottomed plates (3000 cells/well) in 100 µl keratinocyte serum free medium supplemented with bovine pituitary extract in the absence of EGF (Life Technologies, Rockville, Md.) and incubated at 37° C. for two days. The cells were treated with various concentrations of VDR ligands (ten-fold serial dilution from 10,000 nM to 0.1 nM in triplicate), dissolved in 100 µl keratinocyte serum free medium supplemented with bovine pituitary extract in the absence of EGF and incubated at 37° C. for 72 hr. […] Potency values (IC50) values were determined as the concentration (nM) of compound that elicited a half-maximal response.

[2] = Homo sapiens, Keratinocyte, 72 h

**Q.** Which results are given for `CCC(CC)(c1ccc(OCC(O)C(C)(C)C)c(C)c1)c1cc(C)c(C(=O)N[C@@H](C)C(=O)O)s1` (stereo partly drawn) [Ex. 55, L-2-[(5-{1-Ethyl-1-[4-(2-hydroxy-3,3-dimethyl-butoxy)-3-methyl-phenyl]-propyl}-3-methyl-thiophene-2-carbonyl)-amino]-propionic acid]?
**A.** Mouse Hypercal [1]: 1000 µg/kg/day; EC50 (rat osteocalcin promoter): 29.6 nM; IC50 (KERtr cells): 0.1 nM

**Q.** What does the source list for `CCC(CC)(c1ccc(OCC(C)(O)C(C)(C)C)c(C)c1)c1ccc(C(=O)O)s1` (stereo not shown) [Ex. 103, 3′-[4-(2-hydroxy-2,3,3-trimethylbutoxy)-3-methylphenyl]-3′-[5-carboxy-thiophen-2-yl]pentane]?
**A.** Mouse Hypercal [1]: 3000 µg/kg/day; EC50 (rat osteocalcin promoter; Rattus norvegicus): 102 nM

**Q.** With `CCC(CC)(c1ccc(OCC(O)C(C)(C)C)c(C)c1)c1cc(C)c(C(=O)Nc2nnn[nH]2)s1` (single isomer, unassigned) [Ex. 36, 3′-[4-(2-hydroxy-3,3-dimethylbutoxy)-3-methylphenyl]-3′-[5-(tetrazol-5-yl-aminocarbonyl)-4-methylthiophen-2-yl]pentane] as the compound, how does the “Mouse Hypercal” value [1] read?
**A.** The value was 2000 µg/kg/day.

**Q.** And the EC50 (rat osteocalcin promoter)?
**A.** The EC50 was 67.9 nM.

**Q.** With `CCC(CC)(c1ccc(OCC(=O)Nc2nnn[nH]2)c(C)c1)c1cc(C)c(CCC(O)C(C)(C)C)s1` (single isomer, unassigned) [Ex. 35, 3′-[5-(3-hydroxy-4,4-dimethylpentyl)-4-methylthiophen-2-yl]-3′-[4-(tetrazol-5-yl-aminocarbonylmethoxy)-3-methylphenyl]pentane] as the compound, how does the “Mouse Hypercal” value [1] read?
**A.** The value was 3000 µg/kg/day.

**Q.** What about the EC50 (rat osteocalcin promoter) of the same compound?
**A.** Its EC50 is 21.1 nM.

**Q.** And the IC50 (KERtr cells; [2])?
**A.** Its IC50 is 474 nM.

**Q.** What does the source list for `CCC(CC)(c1ccc(OCC(O)C(C)(C)C)c(C)c1)c1cc(C)c(C(=O)N[C@H](C)C(=O)O)s1` (stereo partly drawn) [Ex. 67, D-2-[(5-{1-Ethyl-1-[4-(2-hydroxy-3,3-dimethyl-butoxy)-3-methyl-phenyl]-propyl}-3-methyl-thiophene-2-carbonyl)-amino]-propionic acid]?
**A.** Mouse Hypercal [1]: 3000 µg/kg/day; EC50 (rat osteocalcin promoter): 19.4 nM; IC50 (KERtr cells; [2]): 197 nM

**Q.** For `CCC(CC)(c1ccc(OCC(C)(O)C(C)(C)C)c(C)c1)c1ccc(C(=O)O)s1` (single isomer, unassigned) [Ex. 104, 3′-[4-(2-hydroxy-2,3,3-trimethylbutoxy)-3-methylphenyl]-3′-[5-carboxy-thiophen-2-yl]pentane], which “Mouse Hypercal” value [1] is on record?
**A.** The value was 1000 µg/kg/day.

**Q.** And the EC50 (rat osteocalcin promoter)?
**A.** Its EC50 is 90.9 nM.

**Q.** With `CCC(CC)(c1ccc(OCC(C)(O)C(C)(C)C)c(OC)c1)c1ccc(C(=O)NC(C)C(=O)O)s1` (single isomer, unassigned) [Ex. 116, d-3′-[4-(2-hydroxy-2,3,3-trimethylbutoxy)-3-methoxyphenyl]-3′-[5-(carboxy-1-ethylamino)carbonyl-thiophen-2-yl]pentane] as the compound, how does the “Mouse Hypercal” value [1] read?
**A.** The value was greater than 3000 µg/kg/day.

**Q.** What about the EC50 (rat osteocalcin promoter; Rattus norvegicus) of the same compound?
**A.** The EC50 was 16.9 nM.

**Q.** For `CCC(CC)(c1ccc(OCC(O)C(C)(C)C)c(C(C)C)c1)c1ccc(C(=O)O)s1` (stereo not shown) [Ex. 92, 3′-[4-(2-Hydroxy-3,3-dimethylbutoxy)-3-(1-methylethyl)phenyl]-3′-[5-carboxy-thiophen-2-yl]pentane], which “Mouse Hypercal” value [1] is on record?
**A.** The value was 1000 µg/kg/day.

**Q.** And the EC50 (rat osteocalcin promoter; Rattus norvegicus)?
**A.** The EC50 was 75.3 nM.

**Q.** For `CCC(CC)(c1ccc(OCC(=O)C(C)(C)C)c(C)c1)c1cc(C)c(C(=O)NCC(=O)O)s1` [Ex. 50], which “Mouse Hypercal” value [1] is on record?
**A.** The value was greater than 3000 µg/kg/day.

**Q.** And the EC50 (rat osteocalcin promoter; Rattus norvegicus)?
**A.** The EC50 was 21.6 nM.

**Q.** With `CCC(CC)(c1ccc(OCC(O)C(C)(C)C)c(C(C)C)c1)c1ccc(C(=O)O)s1` (single isomer, unassigned) [Ex. 97, 3′-[4-(2-hydroxy-3,3-dimethylbutoxy)-3-i-propylphenyl]-3′-[5-carboxy-thiophen-2-yl]pentane] as the compound, how does the “Mouse Hypercal” value [1] read?
**A.** Its value is 3000 µg/kg/day.

**Q.** What about the EC50 (rat osteocalcin promoter; Rattus norvegicus) of the same compound?
**A.** The EC50 was 22.4 nM.

**Q.** With `CCCc1cc(C(CC)(CC)c2ccc(C(=O)O)s2)ccc1OCC(O)C(C)(C)C` (single isomer, unassigned) [Ex. 94, 3′-[4-(2-hydroxy-3,3-dimethylbutoxy)-3-n-propylphenyl]-3′-[5-carboxy-thiophen-2-yl]pentane] as the compound, how does the “Mouse Hypercal” value [1] read?
**A.** The value was 1000 µg/kg/day.

**Q.** And the EC50 (rat osteocalcin promoter)?
**A.** Its EC50 is 4.05 nM.

**Q.** For `CCC(CC)(c1ccc(OCC(=O)Nc2nnn[nH]2)c(C)c1)c1cc(C)c(CCC(O)C(C)(C)C)s1` (single isomer, unassigned) [Ex. 34, 3′-[5-(3-hydroxy-4,4-dimethylpentyl)-4-methylthiophen-2-yl]-3-[4-(tetrazol-5-yl-aminocarbonylmethoxy)-3-methylphenyl]pentane], which “Mouse Hypercal” value [1] is on record?
**A.** The value was 3000 µg/kg/day.

**Q.** What about the EC50 (rat osteocalcin promoter) of the same compound?
**A.** Its EC50 is 96.8 nM.

**Q.** Which results are given for `CCC(CC)(c1ccc(OCC(=O)O)c(C)c1)c1cc(C)c(CCC(O)C(C)(C)C)s1` (single isomer, unassigned) [Ex. 33A, 3′-[5-(3-hydroxy-4,4-dimethylpentyl)-4-methylthiophen-2-yl]-3′-[4-(carboxylmethoxy)-3-methylphenyl]pentane]?
**A.** Mouse Hypercal [1]: >9000 µg/kg/day; EC50 (rat osteocalcin promoter): 43.5 nM

**Q.** Which results are given for `CCC(CC)(c1ccc(OCC(O)C(C)(C)C)c(C(C)C)c1)c1ccc(C(=O)O)s1` (single isomer, unassigned) [Ex. 98, 3′-[4-(2-hydroxy-3,3-dimethylbutoxy)-3-i-propylphenyl]-3′-[5-carboxy-thiophen-2-yl]pentane]?
**A.** Mouse Hypercal [1]: 4000 µg/kg/day; EC50 (rat osteocalcin promoter): 15.8 nM

**Q.** Which “Mouse Hypercal” value [1] does the source give for `CCCc1cc(C(CC)(CC)c2ccc(C(=O)N[C@@H](C)C(=O)O)s2)ccc1OCC(C)(O)C(C)(C)C` (single isomer, unassigned) [Ex. 114, d-3′-[4-(2-hydroxy-2,3,3-trimethylbutoxy)-3-n-propylphenyl]-3′-[5-(carboxy-1-ethylamino)carbonyl-thiophen-2-yl]pentane] here?
**A.** Its value is less than 300 µg/kg/day.

**Q.** And the EC50 (rat osteocalcin promoter; Rattus norvegicus)?
**A.** The EC50 was 0.28 nM.

**Q.** For `CCC(CC)(c1ccc(OCC(=O)C(C)(C)C)c(C)c1)c1ccc(OC[C@H](O)C(C)(C)C)c(C)c1` [EE, reference compound], which “Mouse Hypercal” value [1] is on record?
**A.** The value was 1000 µg/kg/day.

**Q.** With `CCC(CC)(c1ccc(OCC(O)CO)c(C)c1)c1ccc(OCC(O)C(C)(C)C)c(C)c1` (stereo not shown) [BB, 3-(4-{1-Ethyl-1-[4-(2-hydroxy-3,3-dimethyl-butoxy)-3-methyl-phenyl]-10 propyl}-2-methyl-phenoxy)-propane-1,2-diol, reference compound] as the compound, how does the “Mouse Hypercal μg/Kg/d” value [1] read?
**A.** The value was “>=20 μg/Kg/d”.

**Q.** With `CCC(CC)(c1ccc(OCC(O)C(C)(C)C)c(C)c1)c1cc(C)c(C(=O)N(C)OC)s1` (single isomer, unassigned) [Ex. 43, 5-{1-Ethyl-1-[4-(2-hydroxy-3,3-dimethyl-butyoxy)-3-methyl-phenyl]-propyl}-3methyl-thiophene-2-carboxylic acid methoxy-methyl-amide] as the compound, how does the “Mouse Hypercal” value [1] read?
**A.** Its value is 1000 µg/kg/day.

**Q.** What about the EC50 (rat osteocalcin promoter; Rattus norvegicus) of the same compound?
**A.** Its EC50 is 19.7 nM.

**Q.** Which “Mouse Hypercal” value [1] does the source give for `CCC(CC)(c1ccc(OCC(=O)C(C)(C)C)c(C)c1)c1cc(C)c(C(=O)N(C)OC)s1` [Ex. 45, 5-{1-[4-(3,3-dimethyl-2-oxo-butyoxy)-3-methyl-phenyl]-1-ethyl-propyl}-3methyl-thiophene-2-carboxylic acid methoxy-methyl-amide] here?
**A.** The value was greater than 1500 µg/kg/day.

**Q.** And the EC50 (rat osteocalcin promoter; Rattus norvegicus)?
**A.** The EC50 was 41 nM.

**Q.** What does the source list for `CCC(CC)(c1ccc(OCC(O)C(C)(C)C)c(C)c1)c1cc(C)c(C(=O)NCCS(C)(=O)=O)s1` (single isomer, unassigned) [Ex. 39, 5-[1-ethyl-1-[4-(2-hydroxy-3,3-dimethyl-butoxy)-3-methylphenyl]propyl]-3-methylthiophene-2-carboxylic acid (2-methylsulfonyl-ethyl) amide]?
**A.** EC50 (rat osteocalcin promoter): 300 nM; IC50 (KERtr cells; [2]): 367 nM

**Q.** What does the source list for `CCC(CC)(c1ccc(OCC(O)C(C)(C)C)c(C)c1)c1cc(C)c(C(=O)N(C)OC)s1` (single isomer, unassigned) [Ex. 44, 5-{1-Ethyl-1-[4-(2-hydroxy-3,3-dimethyl-butyoxy)-3-methyl-phenyl]-propyl}-3methyl-thiophene-2-carboxylic acid methoxy-methyl-amide]?
**A.** Mouse Hypercal [1]: 1000 µg/kg/day; EC50 (rat osteocalcin promoter): 30.4 nM

**Q.** With `CCC(CC)(c1ccc(OS(C)(=O)=O)c(C)c1)c1cc(C)c(CC[C@@H](O)C(C)(C)C)s1` [Ex. 18] as the compound, how does the EC50 (rat osteocalcin promoter; Rattus norvegicus) read?
**A.** The EC50 was 11.2 nM.

**Q.** And the IC50 (KERtr cells; [2])?
**A.** The IC50 was 24.5 nM.

**Q.** What does the source list for `CCC(CC)(c1ccc(OCC(O)C(C)(C)C)c(C)c1)c1ccc(C(=O)O)s1` (single isomer, unassigned) [Ex. 89, 3′-[4-(2-hydroxy-3,3-dimethylbutoxy)-3-methylphenyl]-3′-[5-carboxy-thiophen-2-yl]pentane]?
**A.** EC50 (rat osteocalcin promoter; Rattus norvegicus): 314 nM; IC50 (KERtr cells; [2]): 105 nM

**Q.** For `CCc1cc(C(CC)(CC)c2ccc(C(=O)O)s2)ccc1OCC(O)C(C)(C)C` (stereo not shown) [Ex. 99, 3′-[4-(2-hydroxy-3,3-dimethylbutoxy)-3-ethylphenyl]-3′-[5-carboxy-thiophen-2-yl]pentane], which “Mouse Hypercal” value [1] is on record?
**A.** Its value is greater than 1000 µg/kg/day.

**Q.** What about the EC50 (rat osteocalcin promoter; Rattus norvegicus) of the same compound?
**A.** The EC50 was 38.1 nM.
